Source: ChEMBL document CHEMBL5291721, “A preclinical secondary pharmacology resource illuminates target-adverse drug reaction associations of marketed drugs” (Nat Commun, 2023)

What was measured:
Estrogen receptor = target: T1, Estrogen receptor (Homo sapiens, UniProt P03372)
T1 sequence (P03372 whole entry): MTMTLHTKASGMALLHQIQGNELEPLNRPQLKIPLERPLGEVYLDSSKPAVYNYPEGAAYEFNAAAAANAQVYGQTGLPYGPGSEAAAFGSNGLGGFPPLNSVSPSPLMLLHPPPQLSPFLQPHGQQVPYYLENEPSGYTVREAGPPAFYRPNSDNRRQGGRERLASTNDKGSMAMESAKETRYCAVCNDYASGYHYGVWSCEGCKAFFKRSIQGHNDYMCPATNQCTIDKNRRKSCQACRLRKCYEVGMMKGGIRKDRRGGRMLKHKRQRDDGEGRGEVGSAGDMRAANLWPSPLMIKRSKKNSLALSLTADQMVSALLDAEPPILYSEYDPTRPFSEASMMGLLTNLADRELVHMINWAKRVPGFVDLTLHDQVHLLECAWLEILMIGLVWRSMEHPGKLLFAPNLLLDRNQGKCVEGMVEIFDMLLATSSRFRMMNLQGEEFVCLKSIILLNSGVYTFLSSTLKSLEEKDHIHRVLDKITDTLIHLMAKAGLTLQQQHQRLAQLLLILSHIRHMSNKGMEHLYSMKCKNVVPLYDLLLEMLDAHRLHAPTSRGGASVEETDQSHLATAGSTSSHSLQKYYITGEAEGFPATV

[1] = target: T2, Neuropeptide Y receptor type 1 (Homo sapiens, UniProt P25929)
T2 sequence (P25929 whole entry): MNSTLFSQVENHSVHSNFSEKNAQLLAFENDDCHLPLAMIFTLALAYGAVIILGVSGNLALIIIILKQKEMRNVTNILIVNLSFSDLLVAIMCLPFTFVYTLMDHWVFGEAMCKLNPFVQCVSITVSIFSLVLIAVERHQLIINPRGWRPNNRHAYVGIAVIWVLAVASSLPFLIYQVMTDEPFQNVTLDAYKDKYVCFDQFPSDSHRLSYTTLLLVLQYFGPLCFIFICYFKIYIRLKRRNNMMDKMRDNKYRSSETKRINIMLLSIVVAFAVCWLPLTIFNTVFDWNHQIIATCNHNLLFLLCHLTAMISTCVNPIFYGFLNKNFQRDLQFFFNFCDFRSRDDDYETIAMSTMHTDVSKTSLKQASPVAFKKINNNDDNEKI

Progesterone receptor = target: T3, Progesterone receptor (Homo sapiens, UniProt P06401); format: functional
T3 sequence (P06401 whole entry): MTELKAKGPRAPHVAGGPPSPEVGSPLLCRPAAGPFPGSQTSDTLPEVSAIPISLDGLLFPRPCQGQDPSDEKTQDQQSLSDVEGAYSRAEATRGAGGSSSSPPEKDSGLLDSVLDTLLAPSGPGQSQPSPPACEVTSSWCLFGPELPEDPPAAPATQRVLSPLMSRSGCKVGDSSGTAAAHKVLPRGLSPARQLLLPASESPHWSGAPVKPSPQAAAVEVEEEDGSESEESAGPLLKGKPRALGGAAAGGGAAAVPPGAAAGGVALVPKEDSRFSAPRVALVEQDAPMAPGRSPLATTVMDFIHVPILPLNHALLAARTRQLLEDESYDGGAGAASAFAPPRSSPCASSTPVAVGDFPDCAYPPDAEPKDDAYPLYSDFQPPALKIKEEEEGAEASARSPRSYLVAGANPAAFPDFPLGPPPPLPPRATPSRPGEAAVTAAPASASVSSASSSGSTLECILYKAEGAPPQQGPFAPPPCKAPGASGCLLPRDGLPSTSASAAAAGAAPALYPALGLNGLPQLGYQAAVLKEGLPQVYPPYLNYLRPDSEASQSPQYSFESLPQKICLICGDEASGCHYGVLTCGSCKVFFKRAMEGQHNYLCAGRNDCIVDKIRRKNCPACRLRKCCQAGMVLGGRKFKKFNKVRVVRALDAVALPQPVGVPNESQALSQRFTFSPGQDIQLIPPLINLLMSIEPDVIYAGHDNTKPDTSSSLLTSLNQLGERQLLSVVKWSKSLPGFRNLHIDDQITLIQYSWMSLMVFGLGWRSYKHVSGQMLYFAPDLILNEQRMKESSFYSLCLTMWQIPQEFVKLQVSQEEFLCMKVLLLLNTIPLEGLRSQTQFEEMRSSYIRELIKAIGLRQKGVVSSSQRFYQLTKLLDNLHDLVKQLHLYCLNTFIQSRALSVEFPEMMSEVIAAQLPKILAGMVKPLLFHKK

[2] = target: Voltage-dependent N-type calcium channel subunit alpha-1B (Rattus norvegicus, UniProt Q02294); format: functional
[3] = target: T4, Gastric inhibitory polypeptide receptor (Homo sapiens, UniProt P48546)
T4 sequence (P48546 whole entry): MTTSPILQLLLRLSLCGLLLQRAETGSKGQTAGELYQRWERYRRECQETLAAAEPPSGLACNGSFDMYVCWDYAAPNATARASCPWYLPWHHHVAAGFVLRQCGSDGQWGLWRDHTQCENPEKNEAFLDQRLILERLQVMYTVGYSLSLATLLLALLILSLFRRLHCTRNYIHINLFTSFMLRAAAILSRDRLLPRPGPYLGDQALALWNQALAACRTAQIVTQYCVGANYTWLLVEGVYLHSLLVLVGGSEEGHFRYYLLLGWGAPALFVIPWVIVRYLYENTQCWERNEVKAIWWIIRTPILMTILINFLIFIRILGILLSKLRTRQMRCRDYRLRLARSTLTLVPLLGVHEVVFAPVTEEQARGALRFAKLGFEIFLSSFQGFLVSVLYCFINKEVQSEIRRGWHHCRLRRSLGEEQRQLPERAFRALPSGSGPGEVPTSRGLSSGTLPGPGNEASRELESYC

B1 bradykinin receptor = target: T5, B1 bradykinin receptor (Homo sapiens, UniProt P46663)
T5 sequence (P46663 whole entry): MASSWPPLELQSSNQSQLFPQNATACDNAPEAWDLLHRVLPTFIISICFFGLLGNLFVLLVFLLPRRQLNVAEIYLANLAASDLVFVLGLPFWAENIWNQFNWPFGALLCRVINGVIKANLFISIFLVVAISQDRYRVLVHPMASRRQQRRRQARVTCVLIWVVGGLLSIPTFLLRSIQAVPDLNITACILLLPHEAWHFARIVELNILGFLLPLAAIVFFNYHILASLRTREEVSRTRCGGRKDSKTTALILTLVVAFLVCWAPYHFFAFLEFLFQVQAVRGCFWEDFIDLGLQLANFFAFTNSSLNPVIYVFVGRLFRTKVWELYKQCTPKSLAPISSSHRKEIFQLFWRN
Note: assay procedure not described here.

Sequence of Voltage-dependent N-type calcium channel subunit alpha-1B (Q02294 whole entry): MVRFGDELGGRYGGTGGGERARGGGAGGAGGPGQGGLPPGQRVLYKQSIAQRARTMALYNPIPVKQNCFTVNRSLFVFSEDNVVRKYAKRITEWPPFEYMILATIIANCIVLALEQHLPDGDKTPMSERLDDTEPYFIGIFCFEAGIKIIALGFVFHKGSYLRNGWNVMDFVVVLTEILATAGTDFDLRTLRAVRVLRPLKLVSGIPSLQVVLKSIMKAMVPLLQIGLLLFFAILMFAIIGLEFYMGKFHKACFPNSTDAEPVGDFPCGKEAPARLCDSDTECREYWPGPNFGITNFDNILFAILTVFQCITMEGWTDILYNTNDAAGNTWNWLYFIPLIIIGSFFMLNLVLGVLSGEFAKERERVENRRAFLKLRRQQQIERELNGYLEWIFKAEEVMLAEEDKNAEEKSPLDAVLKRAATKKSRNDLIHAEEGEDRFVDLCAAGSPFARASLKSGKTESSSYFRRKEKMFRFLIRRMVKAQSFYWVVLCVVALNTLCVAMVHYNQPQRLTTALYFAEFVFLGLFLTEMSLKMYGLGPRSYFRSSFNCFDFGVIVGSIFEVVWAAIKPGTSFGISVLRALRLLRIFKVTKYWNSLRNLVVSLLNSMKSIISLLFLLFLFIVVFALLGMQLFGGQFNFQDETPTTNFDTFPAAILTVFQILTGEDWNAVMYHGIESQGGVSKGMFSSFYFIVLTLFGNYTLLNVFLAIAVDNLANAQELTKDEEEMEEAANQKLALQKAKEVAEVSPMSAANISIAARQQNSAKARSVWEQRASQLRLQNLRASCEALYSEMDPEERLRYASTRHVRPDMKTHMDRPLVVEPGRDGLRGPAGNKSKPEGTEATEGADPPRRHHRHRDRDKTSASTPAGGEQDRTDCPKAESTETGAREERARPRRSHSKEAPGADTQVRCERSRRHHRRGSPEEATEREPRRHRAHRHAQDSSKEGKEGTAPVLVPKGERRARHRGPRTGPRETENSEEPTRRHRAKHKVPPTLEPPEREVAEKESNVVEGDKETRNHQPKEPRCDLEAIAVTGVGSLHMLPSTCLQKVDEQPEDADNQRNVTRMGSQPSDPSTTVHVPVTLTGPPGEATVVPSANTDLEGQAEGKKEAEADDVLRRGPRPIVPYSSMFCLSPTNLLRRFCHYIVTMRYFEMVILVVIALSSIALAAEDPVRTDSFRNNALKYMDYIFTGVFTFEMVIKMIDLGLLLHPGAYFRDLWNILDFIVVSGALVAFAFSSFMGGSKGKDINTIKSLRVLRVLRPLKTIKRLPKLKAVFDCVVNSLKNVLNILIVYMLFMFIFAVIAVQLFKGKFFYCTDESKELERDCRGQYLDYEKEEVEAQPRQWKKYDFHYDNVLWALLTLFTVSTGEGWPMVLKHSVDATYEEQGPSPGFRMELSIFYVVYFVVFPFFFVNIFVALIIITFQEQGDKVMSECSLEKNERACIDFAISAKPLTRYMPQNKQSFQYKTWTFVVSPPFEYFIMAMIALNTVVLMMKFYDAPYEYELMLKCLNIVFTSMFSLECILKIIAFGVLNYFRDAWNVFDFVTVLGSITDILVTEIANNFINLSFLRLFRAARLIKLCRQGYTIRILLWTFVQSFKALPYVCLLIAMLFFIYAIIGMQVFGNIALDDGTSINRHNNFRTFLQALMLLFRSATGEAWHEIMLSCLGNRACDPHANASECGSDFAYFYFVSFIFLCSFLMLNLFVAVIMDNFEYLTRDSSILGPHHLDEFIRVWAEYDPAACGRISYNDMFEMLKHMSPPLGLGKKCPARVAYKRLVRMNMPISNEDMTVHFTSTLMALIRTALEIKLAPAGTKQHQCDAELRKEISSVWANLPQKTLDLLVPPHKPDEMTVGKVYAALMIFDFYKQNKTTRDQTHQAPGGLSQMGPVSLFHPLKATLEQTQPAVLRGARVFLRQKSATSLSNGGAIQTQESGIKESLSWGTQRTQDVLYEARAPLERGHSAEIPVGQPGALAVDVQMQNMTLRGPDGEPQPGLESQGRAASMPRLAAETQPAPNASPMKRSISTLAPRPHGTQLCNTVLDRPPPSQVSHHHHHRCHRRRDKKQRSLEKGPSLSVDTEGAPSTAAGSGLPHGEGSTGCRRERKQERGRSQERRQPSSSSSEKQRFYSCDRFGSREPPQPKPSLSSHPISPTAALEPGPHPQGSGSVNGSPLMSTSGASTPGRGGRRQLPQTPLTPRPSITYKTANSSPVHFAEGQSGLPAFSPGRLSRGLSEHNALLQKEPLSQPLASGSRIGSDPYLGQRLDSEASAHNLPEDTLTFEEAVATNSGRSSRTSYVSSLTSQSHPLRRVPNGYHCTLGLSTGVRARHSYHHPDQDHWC

With NS(=O)(=O)c1cc(-c2nnn[nH]2)c(NCc2cccs2)cc1Cl [AZOSEMIDE] the AC50 (Estrogen receptor) was > 30 µM, the AC50 [1] was > 30 µM and the AC50 (Progesterone receptor) was > 30 µM.

O=C(Cn1ccnc1[N+](=O)[O-])NCc1ccccc1 [BENZNIDAZOLE] was tested, and the AC50 (Estrogen receptor) was > 30 µM, the AC50 [1] was > 30 µM and the AC50 (Progesterone receptor) was > 30 µM.

For C[N+](C)(C)CC(=O)O [BETAINE], the AC50 (Estrogen receptor) was > 30 µM, the AC50 [1] was > 30 µM and the AC50 (Progesterone receptor) was > 30 µM.

CCCC(=O)N1CCCN(c2nc(N)c3cc(OC)c(OC)cc3n2)CC1 [BUNAZOSIN] was tested, and the AC50 (Estrogen receptor) was > 30 µM, the AC50 [1] was > 30 µM and the AC50 (Progesterone receptor) was > 30 µM.

With C[N+](C)(C)CCOC(N)=O [CARBAMOYLCHOLINE] the AC50 [1] was > 10 µM and the AC50 (Progesterone receptor) was > 10 µM.

With N[C@@H](CSCC(=O)O)C(=O)O [CARBOCYSTEINE] the AC50 (Estrogen receptor) was > 30 µM, the AC50 [1] was > 30 µM and the AC50 (Progesterone receptor) was > 30 µM.

In the case of CC(C)(N)Cc1ccc(Cl)cc1 [CHLORPHENTERMINE], the AC50 (Estrogen receptor) is reported as > 30 µM, the AC50 [2] is reported as > 10 µM and the AC50 [1] is reported as > 30 µM. For the same molecule, the AC50 [3] was > 30 µM and the AC50 (B1 bradykinin receptor) was > 30 µM.

With CN(C)[C@@H]1C(O)=C(C(N)=O)C(=O)[C@@]2(O)C(O)=C3C(=O)c4c(O)ccc(Cl)c4[C@@H](O)[C@H]3C[C@@H]12 [DEMECLOCYCLINE] the AC50 [1] was > 10 µM and the AC50 (Progesterone receptor) was > 30 µM.

In the case of NS(=O)(=O)c1cc(Cl)c(Cl)c(S(N)(=O)=O)c1 [DICHLORPHENAMIDE], the AC50 [1] is reported as > 10 µM and the AC50 (Progesterone receptor) is reported as > 10 µM.

O=C(Nc1ccccc1)OCC(CN1CCCCC1)OC(=O)Nc1ccccc1 (stereo unspecified) [DIPERODON] was tested, and the AC50 (Estrogen receptor) was > 30 µM, the AC50 [2] was > 10 µM and the AC50 [1] was > 30 µM. The AC50 [3] was > 30 µM and the AC50 (B1 bradykinin receptor) was > 30 µM.

C=C1C[C@@H]2[C@H](CC[C@]3(C)C(=O)CC[C@@H]23)[C@@]2(C)C=CC(=O)C=C12 [EXEMESTANE] was tested, and the AC50 (Estrogen receptor) was > 30 µM, the AC50 [2] was > 10 µM and the AC50 [1] was > 30 µM. The AC50 [3] was > 30 µM and the AC50 (B1 bradykinin receptor) was > 30 µM.

CC(C(O)c1ccc(O)cc1)N1CCC(Cc2ccccc2)CC1 (stereo unspecified) [IFENPRODIL] was tested, and the AC50 (Estrogen receptor) was > 30 µM and the AC50 [1] was > 30 µM.

In the case of CS(=O)(=O)Nc1cc2occ(NC=O)c(=O)c2cc1Oc1ccccc1 [IGURATIMOD], the AC50 (Progesterone receptor) is reported as > 30 µM.

CC(=O)N(CC(O)CO)c1c(I)c(C(=O)NCC(O)CO)c(I)c(C(=O)NCC(O)CO)c1I (stereo unspecified) [IOHEXOL] was tested, and the AC50 (Estrogen receptor) was > 30 µM and the AC50 [1] was > 30 µM.

For CN(CCCN1c2ccccc2CCc2ccccc21)CC(=O)c1ccc(Cl)cc1 [LOFEPRAMINE], the AC50 (Estrogen receptor) was > 30 µM and the AC50 [1] was > 30 µM.

In the case of CC(=O)O[C@]1(C(C)=O)CC[C@H]2[C@@H]3C[C@H](C)C4=CC(=O)CC[C@]4(C)[C@H]3CC[C@@]21C [MEDROXYPROGESTERONE ACETATE], the AC50 [1] is reported as > 30 µM.

In the case of CN(C/C=C/c1ccccc1)Cc1cccc2ccccc12 [NAFTIFINE], the AC50 (Estrogen receptor) is reported as > 30 µM, the AC50 [1] is reported as > 30 µM and the AC50 (Progesterone receptor) is reported as > 30 µM.

With CC(C)NCC1CCc2cc(CO)c([N+](=O)[O-])cc2N1 (stereo unspecified) [OXAMNIQUINE] the AC50 (Estrogen receptor) was > 10 µM, the AC50 [1] was > 10 µM and the AC50 (Progesterone receptor) was > 10 µM.

In the case of CN(C)CCCN1c2ccccc2Sc2ccccc21 [PROMAZINE], the AC50 [2] is reported as > 10 µM, the AC50 [1] is reported as > 30 µM and the AC50 [3] is reported as > 30 µM. For the same molecule, the AC50 (B1 bradykinin receptor) was > 30 µM.

With O=C(O)CCn1c2c(c3ccccc31)C[C@H](NS(=O)(=O)c1ccc(F)cc1)CC2 [RAMATROBAN] the AC50 (Estrogen receptor) was > 30 µM, the AC50 [1] was > 30 µM and the AC50 (Progesterone receptor) was > 30 µM. For the same molecule, the AC50 (B1 bradykinin receptor) was > 10 µM.

For O=P(O)(O)C(O)(Cc1cccnc1)P(=O)(O)O [RISEDRONIC ACID], the AC50 (Estrogen receptor) was > 30 µM, the AC50 [2] was > 10 µM and the AC50 [1] was > 30 µM. For the same molecule, the AC50 [3] was > 30 µM, the AC50 (Progesterone receptor) was > 30 µM and the AC50 (B1 bradykinin receptor) was > 30 µM.

In the case of O=C1CCC(N2C(=O)c3ccccc3C2=O)C(=O)N1 (stereo unspecified) [THALIDOMIDE], the AC50 [2] is reported as > 10 µM, the AC50 [1] is reported as > 30 µM and the AC50 [3] is reported as > 30 µM. The AC50 (B1 bradykinin receptor) was > 30 µM.

For CC(=O)N[C@H]1[C@H]([C@H](O)[C@H](O)CO)OC(C(=O)O)=C[C@@H]1N=C(N)N [ZANAMIVIR], the AC50 (Estrogen receptor) was > 30 µM, the AC50 [1] was > 30 µM and the AC50 (Progesterone receptor) was > 30 µM.
